By IC50 is commonly meant the midpoint of a concentration-inhibition curve.

Assay [1] concerns ^3 H-Dopamine release, rat olfactory tubercles. Kind of assay: Ligand-stimulated ^3 H-dopamine release from rat olfactory tubercles. It counts as cell-based. The following applies: in vitro slices, 300 μM. On the procedure: (§1) Measurement of ^3 H-dopamine release from rat striatal slices was performed according to the method of Sacaan et al. (J. Neurochem. 59:245 (1992)). Male Sprague-Dawley rats (250-300 g) were decapitated and the striata or olfactory tubercles dissected quickly on a cold glass surface. The tissue was chopped to a thickness of 300 μm with a McIlwain tissue chopper. After chopping again at right angles the tissue was dispersed and incubated for 10 min. at 37° C. in oxygenated Kreb's buffer. ^3 H-Dopamine (40 Ci/mmol, NEN- Dupont, Boston, Mass.) was added (50 nM) and the tissue was incubated for 30 min. in Kreb's buffer containing 10 μM pargyline and 0.5 mM ascorbic acid. Aliquots of the minced tissue were then transferred to chambers of a Brandel Superfusion system in which the tissue was supported on Whatman GF/B filter discs. The tissue was then superfused with buffer at a constant flow rate of 0.3 ml/min by means of a Brandel peristaltic pump. The perfusate was collected in plastic scintillation vials in 3-min fractions, and the radioactivity was estimated by scintillation spectrophotometry. The superfusate for the first 120 min was discarded. After two baseline fractions had been collected, the superfusion buffer was switched to fresh buffer with or without compound of interest. At the end of the experiment the filter and the tissue were removed, and the radiolabeled neurotransmitter content was estimated after extraction into scintillation fluid. The fractional efflux of radiolabeled neurotransmitter was estimated as the amount of radioactivity in the perfusate fraction relative to the total amount in the tissue.
(§2) Results of studies of the effects of an invention compound (as compared to the effect of nicotine) on the release of neurotransmitters from rat brain slices are presented in Table II. Results presented in Part A of the Table are expressed as the percent fractional release and results presented in Part B of the Table are expressed as a percentage, relative to nicotine response.

Assay [2] concerns ^3 H-Norepinephrine release, rat prefrontal cortex slices. Briefly: Ligand-stimulated ^3 H-norepinephrine release from rat prefrontal cortex slices. It counts as cell-based. The note with it: in vitro slices, 300 μM. On the procedure: as §1
(§3) Following essentially the same procedure as set forth above, the amount of ^3 H-norepinephrine released from rat hippocampus, thalamus and prefrontal cortex slices superfused with buffer containing (or lacking) compounds of interest was also measured.
as §2

Assay [3] relates to ^3 H-Norepinephrine release, rat thalamus slices. Briefly: Ligand-stimulated ^3 H-norepinephrine release from rat thalamus slices. The note with it: in vitro slices, 300 μM. The format is cell-based. The protocol: as §1, §3, §2
Assay [4] relates to ^3 H-Dopamine release, rat striatal slices. Kind of assay: Ligand-stimulated ^3 H-dopamine release from rat striatal slices. It counts as cell-based. The following applies: in vitro slices, 300 μM. The protocol:
as §1, §2

The next assay concerns rats. Kind of assay: Locomotor activity assay. It counts as in vivo, rat (male Sprague-Dawley). The following applies: Rattus norvegicus, sc, 20 mg/kg, s.c. The protocol:
This assay can be used to assess the primary effect of a compound on general motor activity. A decrease in locomotor activity is indicative of a possible sedative effect on the animal, whereas an increase in locomotor activity is indicative of a stimulant effect on the animal.
Locomotor activity of rats (male Sprague-Dawley (Harlan) weighing 200-250 gm) was measured for 2 hrs in photocell cages immediately after administration of the invention compound. Prior to the test day, the animals were placed in the activity cages for 3 hrs to familiarize them with the experimental environment. On the test day, the animals were placed in the photocell cages and then injected with compound 1.5 hrs later.
The photocell cages were standard rodent cages (30 cm×20 cm×40 cm) with four infrared beams crossing the long axis. The animals were under no motivational constraints and were free to move around. Movements from one infrared beam to another (ambulation) were called "crossover"; successive interruptions of the same beam (vertical and other movements such as grooming) were called "general activity."

The test system of assay [5] is ^3 H-Norepinephrine release, rat hippocampus slices. Briefly: Ligand-stimulated ^3 H-norepinephrine release from rat hippocampus slices. The format is cell-based. The following applies: in vitro slices, 300 μM. On the procedure:
as §1, §3, §2

Assay [6] concerns the target muscarinic acetylcholine receptors. Briefly: ^3 H-QNB (quinuclidinyl benzilate) binding/displacement, rat cerebral membranes. The following applies: ^3 H-QNB 60 pM, rat cerebral membranes.
For assay [7], the target named is T1, nicotinic acetylcholine receptor (Rattus norvegicus, UniProt P09483+P12390).
T1 construct: the brains removed and the cerebral cortex dissected on ice; from tissue; host or cells: cerebral cortex synaptic membranes of male Sprague-Dawley rats
Kind of assay: ^3 H-Nicotine binding/displacement, rat cerebral membranes. The note with it: ^3 H-nicotine 1.9 nM, rat cerebral membranes; read-out: IC50, Nicotine. The protocol: ^3 H-Nicotine binding to rat cerebral membranes was performed according to modifications of the method of Flyn and Mash (J. Neurochem. 47:1948 (1986)). ^3 H-Nicotine (80 ci/mmol; New England Nuclear Corporation, Boston, Mass.) was used as the ligand for nicotinic acetylcholine receptor binding assays. All other reagents were purchased from the Sigma Chemical Co. (St. Louis, Mo.).
Male Sprague-Dawley rats (250-400 gm) were sacrificed by decapitation, the brains removed and the cerebral cortex dissected on ice. Synaptic membranes were prepared by homogenizing the cortical tissue in 20 volumes of ice-cold modified Tris buffer (50 mM Tris pH 7.4, 120 mM NaCl, 5 mM KCl, 2 mM EDTA, 1 mM PMSF) with a polytron (20 sec at setting 5-6) followed by centrifugation (15 min at 5,000×g) at 4° C. The resultant pellet was rehomogenized and centrifuged twice. The final pellet was resuspended in ice-cold assay buffer (50 mM Tris pH 7.4, 120 mM NaCl, 5 mM KCl, 2 mM CaCl2, 1 mM MgCl2) at a concentration of membrane equivalent to 1 gm wet weight cortex per 10 ml buffer. After protein determination the final membrane preparation was diluted with buffer to 3 mg protein/mi. This membrane preparation was used in either the fresh state or frozen (-70° C.) then thawed.
The binding assay is performed manually using 96-well plates, or using a Biomek automated work station (Beckman Instrument Co.). ^3 H-Nicotine was diluted in assay buffer to give a final concentration of 1.9 nM. The Biomek automated work station was programmed to automatically transfer 750 μl of assay buffer with ^3 H-nicotine, 230 μl of membrane preparation and 20 μl of solution containing the compound of interest in assay buffer, DMSO, ethanol:DMSO (1:1) or appropriate vehicle to the 96-well plate. Atropine was added to the incubation buffer at a final concentration of 3 μM to block binding to muscarinic acetylcholine receptor sites. The plates were maintained on ice for 60 min and the tissue-bound radioactivity was separated from the free by rapid filtration in a Brandel Harvester onto GF/C filters presoaked in 0.5% polyethyleneimine for at least 2 hr. The filters were washed with 4×2 ml of ice-cold assay buffer and filters were transferred to vials to which 4 ml of scintillation cocktail was added. The radioactivity was measured in a LS-6500 Beckman Liquid Scintillation Counter in an autodpm mode. Data were analyzed bylog-logit transformation or non-linear regression analysis (e.g., employing GraphPad Prism, available from GraphPad Software, San Diego, Calif.) to give IC50 values. Non-specific binding was defined by 10 μM cytisine.

The mark [8] stands for this setting: 1 h, 0-60 min, read-out: Ambulation (cross overs), percent of change from control.
The mark [9] stands for this setting: 1 h, 0-60 min, read-out: General Activity (beam breaks), percent of change from control.
Setting [10] is: 2 h, 60-120 min, read-out: Ambulation (cross overs), percent of change from control.
Setting [11] is: 2 h, 60-120 min, read-out: General Activity (beam breaks), percent of change from control.

Where a name gives a salt, the structure may show the parent alone. Read-outs that look alike come from different tables or passages of the source.

T1 sequence (P09483 31-630): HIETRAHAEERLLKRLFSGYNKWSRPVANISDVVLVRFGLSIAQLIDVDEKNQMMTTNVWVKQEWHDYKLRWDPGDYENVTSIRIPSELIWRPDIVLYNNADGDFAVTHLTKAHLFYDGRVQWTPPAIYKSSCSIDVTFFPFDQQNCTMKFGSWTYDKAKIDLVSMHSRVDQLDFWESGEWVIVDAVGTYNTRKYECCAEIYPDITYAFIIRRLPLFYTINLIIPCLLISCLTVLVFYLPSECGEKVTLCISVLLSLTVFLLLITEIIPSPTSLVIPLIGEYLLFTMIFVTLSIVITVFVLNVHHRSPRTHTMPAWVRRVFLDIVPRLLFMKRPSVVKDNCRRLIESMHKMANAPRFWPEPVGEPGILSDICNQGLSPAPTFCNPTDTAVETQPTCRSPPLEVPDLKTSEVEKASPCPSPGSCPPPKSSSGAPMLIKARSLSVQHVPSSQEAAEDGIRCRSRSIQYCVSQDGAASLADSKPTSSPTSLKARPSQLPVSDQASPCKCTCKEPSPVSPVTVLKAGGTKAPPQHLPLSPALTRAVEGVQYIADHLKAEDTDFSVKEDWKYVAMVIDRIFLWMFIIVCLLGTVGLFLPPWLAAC
T1 sequence (P12390 25-500): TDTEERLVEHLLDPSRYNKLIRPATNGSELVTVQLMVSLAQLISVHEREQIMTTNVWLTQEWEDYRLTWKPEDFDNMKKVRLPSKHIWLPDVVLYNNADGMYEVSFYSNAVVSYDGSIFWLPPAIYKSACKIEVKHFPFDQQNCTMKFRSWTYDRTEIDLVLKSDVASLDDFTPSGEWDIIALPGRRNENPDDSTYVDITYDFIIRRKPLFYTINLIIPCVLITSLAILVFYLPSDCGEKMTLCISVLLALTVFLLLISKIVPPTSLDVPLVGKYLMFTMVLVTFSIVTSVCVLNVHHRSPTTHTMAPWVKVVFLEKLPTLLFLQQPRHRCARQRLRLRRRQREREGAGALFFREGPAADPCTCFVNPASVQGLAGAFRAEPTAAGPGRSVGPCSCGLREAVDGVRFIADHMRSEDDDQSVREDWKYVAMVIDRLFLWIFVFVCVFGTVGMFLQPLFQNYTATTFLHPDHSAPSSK

As for `CN1CCCC1c1cncc(-c2ccc(F)cc2)c1.O=C(O)/C=C/C(=O)O` (centres unmarked) [A = CH2; R^7 = CH3; R^5 = 4-fluorophenyl, 5-(4-Fluorophenyl)-3-(1-methyl-2-pyrrolidinyl) pyridine fumarate], the “percent fractional release, ^3 H-Dopamine, Olfactory Tubercles” value in assay [1] stood at 2.68%. The “percent fractional release, ^3 H-Norepinephrine, Prefrontal Cortex” value (“percent fractional release … Prefrontal Cortex” for short) in assay [2] stood at 1.23%. Also, in assay [3], the “percent fractional release, ^3 H-Norepinephrine, Thalamus” value (from here on “percent fractional release … Thalamus”) turned out to be 0.9%. Moreover, the “percent fractional release, ^3 H-Dopamine, Striatum” value in assay [4] came out at 1.96%. The change in vivo at 20 mg/kg was 21% in the assay with rats (setting [8]), 95% with rats (setting [9]), 14% with rats (setting [10]) and 173% in the assay on rats (setting [11]). Further, the “percent fractional release, ^3 H-Norepinephrine, Hippocampus” value (“percent fractional release … Hippocampus” for short) in assay [5] was 0.58%.

With `CN1CCCC1c1cncc(-c2ccc(O)c(F)c2)c1.O=C(O)/C=C/C(=O)O` (centres unmarked) [R^5 = 3-fluoro-4-hydroxyphenyl, 5-(4-hydroxy-3-fluorophenyl)-3-(1-methyl-2-pyrrolidinyl)pyridine fumarate], the IC50 in assay [6] was 35 µM; in assay [7] it was 0.029 µM. Besides, the “percent fractional release, ^3 H-Dopamine, Olfactory Tubercles” value in assay [1] is listed as 7.07%. Further, the “percent fractional release … Prefrontal Cortex” value in assay [2] came to 1.14%. For the same compound, the “percent fractional release, ^3 H-Dopamine, Striatum” value in assay [4] amounted to 3.33%. Moreover, the change in vivo at 20 mg/kg was 49% in the assay on rats (setting [8]), 63% in the assay with rats (setting [9]), -14% in the assay on rats (setting [10]) and 26% with rats (setting [11]). In assay [5], the “percent fractional release … Hippocampus” value stood at 1.47%.

As to `CN1CCCC1c1cncc(-c2ccc(-c3ccccc3)cc2)c1` (centres unmarked) [R^5 = 4-biphenyl, 5-(4-Biphenyl)-3-(1-methyl-2-pyrrolidinyl)pyridine fumarate], the IC50 stood at 9.5 µM in assay [6] and 0.047 µM in assay [7]. Also, the “percent fractional release, ^3 H-Dopamine, Olfactory Tubercles” value in assay [1] came to 6.3%. Further, the “percent fractional release … Prefrontal Cortex” value in assay [2] is 3.4%. In addition, in assay [3], the “percent fractional release … Thalamus” value amounted to 1.1%. Moreover, the “percent fractional release, ^3 H-Dopamine, Striatum” value in assay [4] is recorded as 2.2%. The change in vivo at 20 mg/kg in the assay with rats (setting [8]) is -9%; in the assay with rats (setting [9]), -17%; with rats (setting [10]), 73%; in the assay on rats (setting [11]) it was 98%. For the same compound, the “percent fractional release … Hippocampus” value in assay [5] is on record as 2.9%.

For the compound `CN1CCCC1c1cncc(-c2ccc(O)cc2)c1.O=C(O)/C=C/C(=O)O` (centres unmarked) [R^5 = 4-hydroxyphenyl, 5-(4-Hydroxyphenyl)-3-(1-methyl-2-pyrrolidinyl)pyridine fumarate], the IC50 in assay [6] was determined as 19.1 µM; in assay [7] it was 0.0054 µM. Further, the “percent fractional release, ^3 H-Dopamine, Olfactory Tubercles” value in assay [1] is on record as 6.62%. Also, the “percent fractional release … Prefrontal Cortex” value in assay [2] worked out at 3.16%. Also, in assay [3], the “percent fractional release … Thalamus” value was determined as 2.3%. In assay [4], the “percent fractional release, ^3 H-Dopamine, Striatum” value came out at 3.73%. In addition, the change in vivo at 20 mg/kg in the assay on rats (setting [8]) amounted to 74%; in the assay with rats (setting [9]), 96%; in the assay with rats (setting [10]), 110%; in the assay on rats (setting [11]) it was 7%. Besides, in assay [5], the “percent fractional release … Hippocampus” value is 3.03%.

In the case of `Cc1ccc(-c2cncc(C3CCCN3C)c2)cc1.O=C(O)/C=C/C(=O)O` (centres unmarked) [R^5 = 4-methylphenyl, 5-(4-Methylphenyl)-3-(1-methyl-2-pyrrolidinyl)pyridine fumarate], the IC50 in assay [6] amounted to 14 µM; in assay [7] it was 0.031 µM. The “percent fractional release, ^3 H-Dopamine, Olfactory Tubercles” value in assay [1] is given as 1.0%. For the same compound, the “percent fractional release … Thalamus” value in assay [3] stood at 0.31%. The “percent fractional release, ^3 H-Dopamine, Striatum” value in assay [4] is recorded as 0.74%. Further, the “percent fractional release … Hippocampus” value in assay [5] was found to be 0.52%.

For the origin of these results see US5677459A, “Methods for the preparation of modulators of acetylcholine receptors” (Sibia Neurosciences, Inc., priority 1995, dated 1997).
